Laboratory results reported in patent publication US20160076075A1 (priority 2014, published 2016).

Key:
[1] = system: IMCSzyme™ (recombinant glucuronidase); assay type: biochemical
[2] = system: IMCSzyme™ (recombinant glucuronidase); experiment: IMCSzyme hydrolysis of opiate glucuronides; assay type: biochemical; conditions: for Cleavage in the presence of the IMCSzyme (in words): compared with planar THCA-glucuronide
[3] = Hydrolysis of THCA glucuronide at 65° C. with no enzyme; assay type: physicochemical; conditions: for No Enzyme (% Hydrolysis): 65° C.
Procedure: (§1) To a 10 mL volumetric flask add 1 mL ACN. Add 18.5 μL of 10 μg/mL THCA Glucuronide working solution adjusted to allow quantitation of THCA at 18.5 ng/mL post hydrolysis. QS to line with NHU.
(§2) Pipet 50 μL sample into a 750 μL autosampler vial. Pipet 50 μL of prepared enzyme into vial (this will yield 500 U in final 500 μL volume). Vortex and heat 15, 30, 45, and 60 minutes. Then pipet 400 μL of THCA D9 IS into vial. Vortex and move to instrument.
In the presence of enzyme, the THCA glucuronide is hydrolyzed completely by 15 min.

[4] = system: IMCSzyme™ (recombinant glucuronidase); experiment: IMCSzyme hydrolysis of THCA glucuronide with and without water miscible organic media; assay type: biochemical
Procedure: To a 10 mL volumetric flask add 5 mL of 0.2M Sodium Phosphate buffer pH 7.5. Then add 1.0 mL of IMCS enzyme. QS to the line with 0.2M phosphate buffer, cap and invert several times to mix well. Final enzyme concentration is 5000 U.
To a 10 mL volumetric flask add 6 mL of 50/50 ACN/MeOH. Add […] of THCA D9 100 μg/mL. Then add 1.0 mL of IMCS enzyme stock (>5000 U). QS to the line with 0.2M sodium phosphate buffer. Final enzyme concentration is 5000 U.
In a 10 mL volumetric flask add 6 mL of 50/50 ACN/MeOH. Add 25 μL of THCA D9 (100 μg/mL). QS to the line with DI water, cap and invert several times to mix well. Concentration of IS will be 250 ng/mL.
as §1
Pipet 50 μL sample into a 750 μL autosampler vial. Pipet 50 μL of prepared enzyme into vial (this will yield 500 U in final 500 μL volume) and wait 5, 10, 15, and 20 minutes. Then pipet 400 μL of THCA D9 IS into the vial. Vortex and move to instrument.
Pipet 50 μL sample into a 750 μL, autosampler vial. Then pipet 450 μL, of Enzyme Stock Solution With Organic (see above) into vial. Wait 5, 10, 15, and 20 minutes. Vortex and move to instrument.

[5] = system: Red Abalone beta-glucuronidase (Kura Biotec); experiment: Red Abalone beta-glucuronidase hydrolysis of THCA glucuronide; assay type: biochemical; conditions: for Enzyme + Organic Solvent(s) (% Hydrolysis) / Enzyme (% Hydrolysis): 65° C.; for Enzyme + Organic Solvent(s) (% Hydrolysis): ACN/MeOH; for Enzyme (% Hydrolysis): without organic
Procedure: To a 10 mL volumetric flask add 5 mL of DI water. Then add 1.0 mL of Kura Biotec enzyme. QS to the line with DI water, cap and invert several times to mix well. Final enzyme concentration is 5000 U.
In a 10 mL volumetric flask add 6 mL of 50/50 ACN/MeOH. Add 25 μL of THCA D9 100 μg/mL. Then add 1.0 mL of IMCS enzyme. QS to the line with DI water. Final enzyme concentration is 5000 U.
To a 10 mL volumetric flask add 6 mL of 50/50 ACN/MeOH. Add 25 μL of THCA D9 (100 μg/mL). QS to the line with DI water, cap and invert several times to mix well. Concentration of IS will be 250 ng/mL.
as §1, §2
Pipet 50 μL sample into a 750 μL autosampler vial. Then pipet 450 μL of Enzyme Stock Solution With Organic (see above) into vial. Vortex and heat 15, 30, 45, and 60 minutes. Vortex and move to instrument.

## CO[C@]12CC[C@@]3(C[C@@H]1[C@](C)(O)C(C)(C)C)[C@H]1Cc4ccc(O[C@@H]5O[C@H](C(=O)O)[C@@H](O)[C@H](O)[C@H]5O)c5c4[C@@]3(CCN1CC1CC1)[C@H]2O5 [Buprenorphine Glucuronide]
[1]
  Cleavage by the recombinant enzyme (in words): rapidly cleaves

## COc1ccc2c3c1O[C@H]1[C@@H](O[C@@H]4O[C@H](C(=O)O)[C@@H](O)[C@H](O)[C@H]4O)C=C[C@H]4[C@@H](C2)N(C)CC[C@@]341 [Codeine Glucuronide]
[2]; 55° C., 0 min
  Mean % Hydrolysis: 15.7%
[2]; 55° C., 15 min
  Mean % Hydrolysis: 40.2%
[2]; 55° C., 30 min
  Mean % Hydrolysis: 65.6%
[2]; 55° C., 45 min
  Mean % Hydrolysis: 76.6%
[2]; 55° C., 60 min
  Mean % Hydrolysis: 81.8%
[2]; 65° C., 0 min
  Mean % Hydrolysis: 15.7%
[2]; 65° C., 15 min
  Mean % Hydrolysis: 42.7%
[2]; 65° C., 30 min
  Mean % Hydrolysis: 64.1%
[2]; 65° C., 45 min
  Mean % Hydrolysis: 75.5%
[2]; 65° C., 60 min
  Mean % Hydrolysis: 79.8%
[2]
  Cleavage in the presence of the IMCSzyme (in words): take more time and heat to cleave

## CN1CC[C@]23c4c5ccc(O[C@@H]6O[C@H](C(=O)O)[C@@H](O)[C@H](O)[C@H]6O)c4O[C@H]2C(=O)CC[C@H]3[C@H]1C5 [Hydromorphone Glucuronide]
[2]; 55° C., 0 min
  Mean % Hydrolysis: 58.5%
[2]; 55° C., 15 min
  Mean % Hydrolysis: 80.5%
[2]; 55° C., 30 min
  Mean % Hydrolysis: 91.1%
[2]; 55° C., 45 min
  Mean % Hydrolysis: 93.3%
[2]; 55° C., 60 min
  Mean % Hydrolysis: 93.8%
[2]; 65° C., 0 min
  Mean % Hydrolysis: 58.5%
[2]; 65° C., 15 min
  Mean % Hydrolysis: 77.1%
[2]; 65° C., 30 min
  Mean % Hydrolysis: 89.4%
[2]; 65° C., 45 min
  Mean % Hydrolysis: 91.0%
[2]; 65° C., 60 min
  Mean % Hydrolysis: 91.5%

## CN1CC[C@]23c4c5ccc(O[C@@H]6O[C@H](C(=O)O)[C@@H](O)[C@H](O)[C@H]6O)c4O[C@H]2[C@@H](O)C=C[C@H]3[C@H]1C5 [Morphine-3-Glucuronide]
[2]; 55° C., 0 min
  Mean % Hydrolysis: 99.5%
[2]; 55° C., 15 min
  Mean % Hydrolysis: 99.1%
[2]; 55° C., 30 min
  Mean % Hydrolysis: 99.1%
[2]; 55° C., 45 min
  Mean % Hydrolysis: 97.4%
[2]; 55° C., 60 min
  Mean % Hydrolysis: 99.9%
[2]; 65° C., 0 min
  Mean % Hydrolysis: 99.5%
[2]; 65° C., 15 min
  Mean % Hydrolysis: 95.9%
[2]; 65° C., 30 min
  Mean % Hydrolysis: 95.8%
[2]; 65° C., 45 min
  Mean % Hydrolysis: 97.9%
[2]; 65° C., 60 min
  Mean % Hydrolysis: 97.6%

## CN1CC[C@]23c4c5ccc(O)c4O[C@H]2[C@@H](O[C@@H]2O[C@H](C(=O)O)[C@@H](O)[C@H](O)[C@H]2O)C=C[C@H]3[C@H]1C5 [Morphine-6-Glucuronide]
[2]; 55° C., 0 min
  Mean % Hydrolysis: 40.4%
[2]; 55° C., 15 min
  Mean % Hydrolysis: 67.9%
[2]; 55° C., 30 min
  Mean % Hydrolysis: 83.6%
[2]; 55° C., 45 min
  Mean % Hydrolysis: 95.9%
[2]; 55° C., 60 min
  Mean % Hydrolysis: 91.7%
[2]; 65° C., 0 min
  Mean % Hydrolysis: 40.4%
[2]; 65° C., 15 min
  Mean % Hydrolysis: 71.2%
[2]; 65° C., 30 min
  Mean % Hydrolysis: 88.3%
[2]; 65° C., 45 min
  Mean % Hydrolysis: 98.5%
[2]; 65° C., 60 min
  Mean % Hydrolysis: 97.9%
[2]
  Cleavage in the presence of the IMCSzyme (in words): take more time and heat to cleave

## CN1CC[C@]23c4c5ccc(O[C@@H]6O[C@H](C(=O)O)[C@@H](O)[C@H](O)[C@H]6O)c4O[C@H]2C(=O)CC[C@@]3(O)[C@H]1C5 [Oxymorphone Glucuronide]
[2]; 55° C., 0 min
  Mean % Hydrolysis: 43.6%
[2]; 55° C., 15 min
  Mean % Hydrolysis: 71.7%
[2]; 55° C., 30 min
  Mean % Hydrolysis: 90.5%
[2]; 55° C., 45 min
  Mean % Hydrolysis: 97.0%
[2]; 55° C., 60 min
  Mean % Hydrolysis: 101.2%
[2]; 65° C., 0 min
  Mean % Hydrolysis: 43.6%
[2]; 65° C., 15 min
  Mean % Hydrolysis: 76.2%
[2]; 65° C., 30 min
  Mean % Hydrolysis: 89.7%
[2]; 65° C., 45 min
  Mean % Hydrolysis: 95.6%
[2]; 65° C., 60 min
  Mean % Hydrolysis: 100.0%

## CCCCCc1cc(O)c2c(c1)OC(C)(C)C1CCC(C(=O)OC3OC(C(=O)O)C(O)C(O)C3O)=CC21 (centres unmarked) [THCA Glucuronide]
[3]; 15 min
  No Enzyme (% Hydrolysis): 0.03%
[3]; 30 min
  No Enzyme (% Hydrolysis): 0.03%
[3]; 45 min
  No Enzyme (% Hydrolysis): 0.03%
[3]; 60 min
  No Enzyme (% Hydrolysis): 0.03%
[3]; elevated temperature
  Hydrolysis in the absence of enzyme (in words): no hydrolysis
[4]; Enzyme added and incubated, then organic media added, 5 min at 55° C.
  Mean % Hydrolysis: 89.2%
[4]; Enzyme added and incubated, then organic media added, 5 min at 65° C.
  Mean % Hydrolysis: 90.1%
[4]; Enzyme and organic media added at same time, 5 min at Room Temp
  Mean % Hydrolysis: 110.2%
[4]; Enzyme and organic media added at same time, 10 min at Room Temp
  Mean % Hydrolysis: 101.7%
[4]; Enzyme and organic media added at same time, 15 min at Room Temp
  Mean % Hydrolysis: 104.9%
[4]; room temperature, time to fill the 96-well plate (~15 min using robotics)
  Recombinant enzyme hydrolysis (in words): complete
[5]; 15 min
  Enzyme + Organic Solvent(s) (% Hydrolysis): 121%
  Enzyme (% Hydrolysis): 104%
[5]; 30 min
  Enzyme + Organic Solvent(s) (% Hydrolysis): 130%
  Enzyme (% Hydrolysis): 97%
[5]; 45 min
  Enzyme + Organic Solvent(s) (% Hydrolysis): 134%
  Enzyme (% Hydrolysis): 102%
[5]; 60 min
  Enzyme + Organic Solvent(s) (% Hydrolysis): 136%
  Enzyme (% Hydrolysis): 101%
[5]; enzyme and 60% water miscible solvent, as early as 15 min
  Hydrolysis: 100%
[5]; in the presence of enzyme
  Time by which hydrolyzed completely: ≤ 15 min
